Literature values as cited in US20250177320A1 (CinRx Pharma, LLC, priority 2017, published 2025).

For Oc1cc(O)cc(O)c1 [Phloroglucinol, 1,3,5-benzenetriol], the “bioavailability (absorption)” value (after an oral dose) is listed as 47%, the plasma half-life (plasma) is listed as 1.5 h and the peak blood concentration (single oral dose of 160 mg) is listed as 677 ng/mL. The “time to peak blood concentration” value (single oral dose of 160 mg) was 20 min.
